In data set [1] the test system is subjects with gingivitis. Kind of data set: randomized, placebo-controlled, double-blind clinical study of Compound (Vb) oral rinse in gingivitis. In kind it is in vivo, humans. Here is the method:
A clinical study comprised of 3 groups in a randomized, placebo-controlled, double-blind design with an additional group that received no treatment was performed to evaluate the use of Compound (Vb) on the treatment of gingivitis. Subjects were healthy adults, aged 18 through 65 years, with gingivitis as defined by […] (MGI)≥2.0. The treatment group (Compound (Vb) oral rinse) and the placebo rinse group consisted of 50 subjects each. The no-rinse control group consisted of 27 subjects. These group sizes were planned to allow for a 20% dropout rate.
(§1) The pH of this solution was 7 or less.
The Compound (Vb) oral rinse group received the active agent at a concentration of 1.0 μM in the oral rinse applied once daily (after morning teeth brushing) for 28 days. Thirty-two subjects reported a total of 56 treatment emergent adverse effects (TEAEs), with the greatest percentage of subjects reporting at least 1 TEAE in the Compound (Vb) group (38.0%) followed by the placebo group (20.0%) and the no-rinse control group (11.1%). Overall, 10 subjects reported at least 1 TEAE considered related to study drug, and 5 subjects reported at least one TEAE related to study procedures.
The primary outcome of this study was safety, and therefore, all efficacy analyses were considered secondary outcomes. The key secondary efficacy outcomes in this study were Modified Gingival Index (MGI) and BOP.

Data set [2] can be described thus: stability of the methyl ester in the oral rinse formulation over the course of the study. In kind it is physicochemical. Conditions: neutral pH (7 or less).
Description: as §1
Without wishing to be bound by theory, it is believed that […] the pH of the oral rinse formulation increases the stability of the methyl ester forms of these benzo-lipoxin analogs and mimetics, therefore allowing for more efficient delivery of the active compounds (e.g., Compound (Vb), etc.) in these formulations.

In data set [3] the test system is polymorphonuclear neutrophil infiltration. Conditions: murine peritonitis model, compared with the vehicle control; cited from earlier work.
For data set [4], the system named is eicosanoid oxido-reductase. The following applies: in comparison with native lipoxin A4; cited from earlier work.
Setting [5] is: 1.0 μM oral rinse once daily for 28 days.
Setting [6] is: oral TEAE possibly related to study drug.

`CCCCC[C@@H](O)/C=C/c1ccccc1/C=C/[C@@H](O)[C@@H](O)CCCC(=O)OC` [Compound (Vb), methyl (5S,6R,E)-5,6-dihydroxy-8-(2-((R,E)-3-hydroxyoct-1-en-1-yl)phenyl)oct-7-enoate]: in data set [1] (setting [5]), the “overall safety and tolerability” value was “generally safe and well tolerated”; the “percentage of subjects reporting at least 1 TEAE” value is reported as 38.0%; the “subjects reporting oral TEAEs considered possibly related to study drug” value was “Four”; the “subjects with study drug-related TEAEs” value is given as 6 subjects. In addition, the “change in mean MGI” value in data set [1] (Day 14 and 28, relative to placebo) is recorded as “clinically important decrease”. The BOP result in data set [1] (Day 28, versus placebo) is on record as “did not result in meaningful differences”. Also, the “extent of clinical gingivitis” value in data set [1] (compared with the placebo group) was “reduced the extent of clinical gingivitis”. Further, the “TEAEs leading to study drug discontinuation” value in data set [1] (human, in vivo) was “No TEAEs led to study drug discontinuation”. Moreover, the “severity of oral TEAEs” value in data set [1] (human, in vivo, po) was “mild in severity”. For the same compound, in data set [1] (setting [6]), the “subjects reporting an oral disorder” value amounted to 1 subject and the “subjects reporting dry mouth” value amounted to 3 subjects. This compound also displayed a pocket depth reduction in data set [1] (sites with pockets >6 mm, ± SD) of −1.23±0.406 mm. Moreover, in data set [2], the “stability of the methyl ester in the formulation” value is “increase in the free acid form”. Besides, in data set [3], the “inhibition of polymorphonuclear neutrophil infiltration” value is given as “approximately 32%”. The “conversion to inactive forms” value in data set [4] is “not readily converted to inactive forms”.

The values above are taken from US12527760B2, “Synthesis of pro-resolving analogs and compositions therefor” (Nocendra Inc., priority 2019, dated 2026).
